Measurements taken from patent US20180021361A1, “COMBINATION DRUG TREATMENT FOR HEPATITIS C INFECTION” (JANSSEN PHARMACEUTICALS, INC., priority 2016, published 2018).

What was measured:
BSEP = BSEP (Homo sapiens, UniProt O95342); conditions: efflux transporter; cited from earlier work
MRP2 = MRP2 (Homo sapiens, UniProt Q92887); conditions: efflux transporter; cited from earlier work
MRP2/3 = MRP2/3 (Homo sapiens, UniProt O15438); conditions: efflux transporter; cited from earlier work
OATP1B1 = target: T1, OATP1B1 (Homo sapiens, UniProt Q9Y6L6); conditions: uptake transporter; cited from earlier work
T1 sequence (Q9Y6L6 1-691): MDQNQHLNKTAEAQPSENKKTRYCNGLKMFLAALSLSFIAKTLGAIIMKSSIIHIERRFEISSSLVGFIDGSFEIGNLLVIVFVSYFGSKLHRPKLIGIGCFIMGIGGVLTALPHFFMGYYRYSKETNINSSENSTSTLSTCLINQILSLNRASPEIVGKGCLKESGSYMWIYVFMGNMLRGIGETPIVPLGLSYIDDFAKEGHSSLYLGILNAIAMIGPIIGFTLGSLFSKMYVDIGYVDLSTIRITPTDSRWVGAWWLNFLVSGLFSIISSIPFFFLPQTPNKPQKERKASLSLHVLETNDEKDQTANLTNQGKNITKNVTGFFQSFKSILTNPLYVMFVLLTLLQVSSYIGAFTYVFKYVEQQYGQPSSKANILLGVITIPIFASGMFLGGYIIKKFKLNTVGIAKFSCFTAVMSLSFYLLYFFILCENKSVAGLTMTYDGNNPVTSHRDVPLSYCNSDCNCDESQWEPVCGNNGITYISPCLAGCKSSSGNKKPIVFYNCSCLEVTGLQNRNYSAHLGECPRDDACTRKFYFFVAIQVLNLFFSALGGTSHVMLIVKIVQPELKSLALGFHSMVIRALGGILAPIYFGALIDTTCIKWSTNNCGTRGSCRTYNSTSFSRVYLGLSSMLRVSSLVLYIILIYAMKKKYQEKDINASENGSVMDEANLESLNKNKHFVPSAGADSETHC

[1] = Phase 2a open-label combination study, pharmacokinetics; type: in vivo, human
Procedure: A randomized, Phase 2a, open-label study was carried out to evaluate the safety, pharmacokinetics and efficacy of the combination of Compound (III), Odalasvir and Simeprevir in Genotype 1 treatment-naïve subjects with chronic hepatitis C. Other treatment-naïve subjects included Genotype 2, 3, 4, 5 and 6. The aim of the study was to determine the efficacy, pharmacokinetics (PK), and safety of Compound (III)+Odalasvir±SMV in HCV-infected subjects. […] Efficacy, PK and safety evaluations were conducted during and through 24 weeks post dosing. Up to 15 cohorts were enrolled; data was generated from cohorts that have completed dosing.

[2] = PK of single agents versus fixed dose combinations, single dose in healthy volunteers; type: in vivo, human; conditions: for t1/2term: mean ± SD
Procedure: SMV (100 mg), ODV (50 mg), and Compound (III) (800 mg) were administered as three different formulations or together as single doses in vivo to healthy volunteers. The arms of the study included: • Arm 1 (Reference Arm): Single oral doses of single agents, one SMV 100-mg capsule, one ODV 50-mg tablet as granule layered solid dispersion with copovidone and poloxamers, and two Compound (III) 400-mg tablets, administered together. • Arm 2: Single oral dose of fixed dose combination (FDC02): SMV 100 mg+ODV 50 mg as a spray dried solid dispersion with HPMC-AS L in a ratio ODV/HPMC-AS L 1/1 w/w+Compound (III) 800 mg • Arm 3: Single oral dose of fixed dose combination (FDC04): SMV 100 mg+ODV 50 mg as a spray dried solid dispersion with HPMC-AS L in a ratio ODV/HPMC-AS L 1/3 w/w+Compound (III) 800 mg • Arm 4: Single oral dose of fixed dose combination (FDC01): SMV 100 mg+ODV 50 mg as a spray dried solid dispersion with copovidone and poloxamers+Compound (III) 800 mg
PK parameters, including Cmax, tmax, AUClast, and AUC∞ were measured for Compound (III), ODV, SMV, and metabolites Compound A-I and Compound A-3 for each Arm of the study. Arms that included fixed dose combinations (FDC) (Arm 2, Arm 3, and Arm 4) were then compared to a single oral dose (Arm 1, the reference Arm). Table 9, Table 10, Table 11, Table 12 and Table 13 display relevant PK parameters and FIG. 9, FIG. 10, FIG. 11, FIG. 12, and FIG. 13 depict the plasma concentration over time of SMV, ODV, Compound A-1, and Compound A-3 for each Arm of the study.

CYP = CYP inhibition

Chain of BSEP (O95342 whole entry): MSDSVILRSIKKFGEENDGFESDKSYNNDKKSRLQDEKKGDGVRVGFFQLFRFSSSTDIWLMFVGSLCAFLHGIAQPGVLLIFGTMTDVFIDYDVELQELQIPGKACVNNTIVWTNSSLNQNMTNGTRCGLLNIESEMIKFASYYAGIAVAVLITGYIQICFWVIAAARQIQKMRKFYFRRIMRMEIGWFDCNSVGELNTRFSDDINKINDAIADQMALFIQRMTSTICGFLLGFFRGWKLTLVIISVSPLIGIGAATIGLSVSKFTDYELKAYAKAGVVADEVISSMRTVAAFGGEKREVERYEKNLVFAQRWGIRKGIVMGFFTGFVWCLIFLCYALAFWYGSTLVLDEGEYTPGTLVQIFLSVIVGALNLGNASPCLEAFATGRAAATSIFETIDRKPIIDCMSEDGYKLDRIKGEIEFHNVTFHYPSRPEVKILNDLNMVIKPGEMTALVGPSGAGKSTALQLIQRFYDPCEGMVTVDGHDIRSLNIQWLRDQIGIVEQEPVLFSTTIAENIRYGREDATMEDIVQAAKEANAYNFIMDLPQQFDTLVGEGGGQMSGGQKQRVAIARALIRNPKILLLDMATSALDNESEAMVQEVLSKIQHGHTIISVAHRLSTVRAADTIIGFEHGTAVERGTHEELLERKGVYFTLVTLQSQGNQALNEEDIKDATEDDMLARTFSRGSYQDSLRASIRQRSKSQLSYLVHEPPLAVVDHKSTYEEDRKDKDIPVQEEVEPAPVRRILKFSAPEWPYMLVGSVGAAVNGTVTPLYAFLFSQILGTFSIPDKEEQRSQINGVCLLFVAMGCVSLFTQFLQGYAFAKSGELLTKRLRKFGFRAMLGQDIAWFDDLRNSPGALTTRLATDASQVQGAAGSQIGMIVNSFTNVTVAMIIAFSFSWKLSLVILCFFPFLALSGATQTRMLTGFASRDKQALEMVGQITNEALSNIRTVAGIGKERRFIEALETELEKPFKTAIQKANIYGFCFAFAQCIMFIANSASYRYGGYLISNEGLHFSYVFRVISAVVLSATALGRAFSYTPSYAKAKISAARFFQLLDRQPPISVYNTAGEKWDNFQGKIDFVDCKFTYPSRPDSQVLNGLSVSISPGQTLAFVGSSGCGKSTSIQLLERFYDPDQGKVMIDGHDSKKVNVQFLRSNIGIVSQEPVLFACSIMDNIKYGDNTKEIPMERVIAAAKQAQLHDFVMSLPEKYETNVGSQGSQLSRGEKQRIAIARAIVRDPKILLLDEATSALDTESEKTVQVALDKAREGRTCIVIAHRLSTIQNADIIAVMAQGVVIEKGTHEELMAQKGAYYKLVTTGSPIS
Chain of MRP2 (Q92887 whole entry): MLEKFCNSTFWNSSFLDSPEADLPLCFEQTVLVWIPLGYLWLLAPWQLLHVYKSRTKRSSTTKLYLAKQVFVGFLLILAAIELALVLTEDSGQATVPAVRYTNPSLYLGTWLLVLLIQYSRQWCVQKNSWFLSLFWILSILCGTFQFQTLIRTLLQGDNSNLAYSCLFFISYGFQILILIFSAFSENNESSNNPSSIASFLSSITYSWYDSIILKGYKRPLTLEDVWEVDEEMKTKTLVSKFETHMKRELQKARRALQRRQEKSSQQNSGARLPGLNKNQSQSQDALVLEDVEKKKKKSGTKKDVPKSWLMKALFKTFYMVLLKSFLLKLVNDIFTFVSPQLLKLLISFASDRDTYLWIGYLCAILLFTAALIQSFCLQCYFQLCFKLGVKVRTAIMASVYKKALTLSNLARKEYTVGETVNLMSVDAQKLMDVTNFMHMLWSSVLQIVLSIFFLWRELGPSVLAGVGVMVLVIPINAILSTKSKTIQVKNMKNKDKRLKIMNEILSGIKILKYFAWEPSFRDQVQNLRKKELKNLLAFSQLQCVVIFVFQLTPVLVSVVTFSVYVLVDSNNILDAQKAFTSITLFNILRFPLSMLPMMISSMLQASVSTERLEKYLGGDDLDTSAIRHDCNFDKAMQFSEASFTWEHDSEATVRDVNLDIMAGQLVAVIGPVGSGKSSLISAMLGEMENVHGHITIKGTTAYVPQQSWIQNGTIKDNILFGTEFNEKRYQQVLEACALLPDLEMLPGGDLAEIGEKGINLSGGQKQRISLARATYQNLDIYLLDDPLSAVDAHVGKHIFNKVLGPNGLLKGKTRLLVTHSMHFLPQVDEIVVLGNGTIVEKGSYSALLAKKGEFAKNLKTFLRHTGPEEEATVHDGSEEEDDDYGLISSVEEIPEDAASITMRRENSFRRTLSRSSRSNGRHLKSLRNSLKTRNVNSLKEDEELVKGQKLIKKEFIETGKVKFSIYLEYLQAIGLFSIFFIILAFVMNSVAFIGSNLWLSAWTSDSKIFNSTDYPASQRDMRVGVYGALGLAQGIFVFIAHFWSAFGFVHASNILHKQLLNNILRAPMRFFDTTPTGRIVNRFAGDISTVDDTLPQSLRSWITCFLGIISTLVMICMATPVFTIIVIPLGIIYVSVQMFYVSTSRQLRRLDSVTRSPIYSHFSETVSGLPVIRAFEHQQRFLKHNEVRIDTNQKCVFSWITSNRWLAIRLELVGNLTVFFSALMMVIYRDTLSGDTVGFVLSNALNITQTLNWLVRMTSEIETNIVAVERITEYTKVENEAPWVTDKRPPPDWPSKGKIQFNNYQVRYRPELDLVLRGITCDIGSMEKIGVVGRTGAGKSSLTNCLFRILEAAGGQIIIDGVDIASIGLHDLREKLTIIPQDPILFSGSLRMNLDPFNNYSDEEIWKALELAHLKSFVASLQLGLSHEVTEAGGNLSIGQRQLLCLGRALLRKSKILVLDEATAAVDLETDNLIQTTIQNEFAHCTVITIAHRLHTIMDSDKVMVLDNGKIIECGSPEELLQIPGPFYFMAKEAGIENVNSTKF
Chain of MRP2/3 (O15438 whole entry): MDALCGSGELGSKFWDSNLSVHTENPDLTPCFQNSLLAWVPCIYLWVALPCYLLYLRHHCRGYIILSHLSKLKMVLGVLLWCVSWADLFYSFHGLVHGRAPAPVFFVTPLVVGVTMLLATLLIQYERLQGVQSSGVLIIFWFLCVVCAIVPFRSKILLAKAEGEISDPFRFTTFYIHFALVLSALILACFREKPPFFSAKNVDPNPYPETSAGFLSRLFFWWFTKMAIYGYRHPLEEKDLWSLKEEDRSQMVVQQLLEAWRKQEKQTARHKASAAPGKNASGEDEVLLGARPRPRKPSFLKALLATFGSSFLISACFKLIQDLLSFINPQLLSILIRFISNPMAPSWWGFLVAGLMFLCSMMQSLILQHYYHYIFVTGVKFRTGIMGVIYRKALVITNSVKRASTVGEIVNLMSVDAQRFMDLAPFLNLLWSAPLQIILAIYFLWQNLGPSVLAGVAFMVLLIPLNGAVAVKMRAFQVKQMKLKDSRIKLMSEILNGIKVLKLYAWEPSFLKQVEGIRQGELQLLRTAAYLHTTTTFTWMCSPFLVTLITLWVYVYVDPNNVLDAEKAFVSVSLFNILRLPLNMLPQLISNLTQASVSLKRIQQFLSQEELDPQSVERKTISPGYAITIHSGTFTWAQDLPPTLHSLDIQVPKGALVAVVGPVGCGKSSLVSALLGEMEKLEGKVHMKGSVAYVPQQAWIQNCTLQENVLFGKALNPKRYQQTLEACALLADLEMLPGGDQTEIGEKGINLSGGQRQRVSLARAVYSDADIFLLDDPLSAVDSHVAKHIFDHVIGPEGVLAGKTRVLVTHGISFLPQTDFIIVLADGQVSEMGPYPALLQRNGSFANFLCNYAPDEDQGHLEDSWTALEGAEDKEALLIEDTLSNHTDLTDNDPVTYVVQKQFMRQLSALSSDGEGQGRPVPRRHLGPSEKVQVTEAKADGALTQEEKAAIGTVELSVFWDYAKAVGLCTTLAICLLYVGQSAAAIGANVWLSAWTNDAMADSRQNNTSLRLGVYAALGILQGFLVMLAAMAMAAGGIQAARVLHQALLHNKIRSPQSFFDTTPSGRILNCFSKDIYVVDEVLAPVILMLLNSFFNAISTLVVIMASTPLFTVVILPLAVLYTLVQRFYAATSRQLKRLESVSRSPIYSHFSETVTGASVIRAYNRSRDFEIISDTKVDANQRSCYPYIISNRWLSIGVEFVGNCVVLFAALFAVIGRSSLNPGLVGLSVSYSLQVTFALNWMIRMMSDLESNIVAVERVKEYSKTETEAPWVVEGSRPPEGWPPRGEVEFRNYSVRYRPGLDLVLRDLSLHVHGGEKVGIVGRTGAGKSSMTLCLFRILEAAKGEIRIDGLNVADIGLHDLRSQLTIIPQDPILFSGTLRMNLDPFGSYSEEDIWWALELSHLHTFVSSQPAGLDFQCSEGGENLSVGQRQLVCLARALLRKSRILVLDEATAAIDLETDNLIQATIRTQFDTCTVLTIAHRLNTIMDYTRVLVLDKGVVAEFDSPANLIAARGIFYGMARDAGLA

decrease of exposure on reducing Odalasvir dosing from once a day to every other day ([1]; 50 mg)	observed exposure in Cohort 1 / group (i) versus anticipated ([1]; Compound (III) 400 mg, ODV 50 mg QD, SMV 100 mg QD)	Structure (SMILES)	in vitro inhibition of BSEP (BSEP)	in vitro inhibition of MRP2 (MRP2)	in vitro inhibition of MRP3 (MRP2/3)	in vitro inhibition of OATP1B1 (OATP1B1)	t1/2term ([2]; Arm 1 (reference): single agents, single oral dose)	t1/2term ([2]; Arm 2: FDC02, single oral dose)	t1/2term ([2]; Arm 3: FDC04, single oral dose)	t1/2term ([2]; Arm 4: FDC01, single oral dose)	Tmax ([2]; human, in vivo, Arm 1 (reference): single agents, single oral dose, median [range])	IC50 (CYP)
proportionally	higher than anticipated	COC(=O)N[C@H](C(=O)N1[C@H](c2nc3cc(-c4cc5ccc4CCc4ccc(c(-c6ccc7[nH]c([C@@H]8C[C@@H]9CCCC[C@@H]9N8C(=O)[C@@H](NC(=O)OC)C(C)C)nc7c6)c4)CC5)ccc3[nH]2)C[C@@H]2CCCC[C@@H]21)C(C)C [ODV, methyl [(2S)-1-[(2S,3aS,7aS)-2-[6-[11-[2-[(2S,3aS,7aS)-1-[(2S)-2-[(methoxycarbonyl)amino]-3-methylbutanoyl]octahydro-1H-indol-2-yl]-1H-benzimidazol-6-yl]tricyclo[8.2.2.2^4,7]hexadeca-1(12),4,6,10,13,15-hexaen-5-yl]-1H-benzimidazol-2-yl]octahydro-1H-indol-1-yl]-3-methyl-1-oxobutan-2-yl]carbamate]	no inhibition	no inhibition	no inhibition	no inhibition	–	–	–	–	–	–
–	–	CC(C)OC(=O)C(C)N[P@](=O)(OC[C@@]1(F)O[C@@H](n2ccc(=O)[nH]c2=O)[C@](C)(O)[C@@H]1O)Oc1ccccc1 (stereo in doubt) [Compound (III)]	–	–	–	no in vitro inhibition	36 ± 6 min	42 ± 12 min	42 ± 6 min	36 ± 6 min	120 min	> 26 µM
